Earlier results on 1 compound are cited in patent US20030170327A1, “Vitamin and zinc monomethionine compositions” (priority 2002, published 2003).

For the data set the following is noted: versus other forms of zinc found in nutritional supplements.

Take `CSCC[C@H](N)C(=O)O.[Zn]` [zinc monomethionine]: the “absorption in comparison to other forms of zinc” value is reported as “better absorbed” and the “retention in comparison to other forms of zinc” value is “retained longer”.
